This passage reports CC50 and IC50 results from ChEMBL document CHEMBL5325495, “Synthesis and anti-cancer potential of potent peripheral MAOA inhibitors designed to limit blood:brain penetration” (Bioorg Med Chem, 2023).

In one test the test system is LNCaP C4-2B. Description: Cytotoxicity against human LNCaP C4-2B cells incubated for 3 days by Cell-Titer Glo assay. The settings on record: 72 h, time 3 day. It counts as functional.
Test [1] addresses T1, Amine oxidase [flavin-containing] B (Homo sapiens, UniProt P27338).
T1 sequence (P27338 whole entry): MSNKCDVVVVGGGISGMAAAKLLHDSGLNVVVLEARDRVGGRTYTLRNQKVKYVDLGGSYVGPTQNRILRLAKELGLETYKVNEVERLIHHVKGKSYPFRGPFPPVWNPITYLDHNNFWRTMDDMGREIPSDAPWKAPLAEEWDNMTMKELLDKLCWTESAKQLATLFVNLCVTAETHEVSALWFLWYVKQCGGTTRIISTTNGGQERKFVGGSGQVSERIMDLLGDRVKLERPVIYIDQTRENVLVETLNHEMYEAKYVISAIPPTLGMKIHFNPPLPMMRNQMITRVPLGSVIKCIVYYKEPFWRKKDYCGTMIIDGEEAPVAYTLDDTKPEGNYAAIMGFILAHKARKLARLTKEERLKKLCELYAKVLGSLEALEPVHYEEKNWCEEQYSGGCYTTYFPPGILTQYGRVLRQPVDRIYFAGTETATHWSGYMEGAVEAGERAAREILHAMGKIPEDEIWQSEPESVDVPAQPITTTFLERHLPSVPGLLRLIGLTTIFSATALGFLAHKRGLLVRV
Description: Inhibition of recombinant human MAO-B expressed in baculovirus infected BTI insect cells. It counts as cell-based.

Test [2] has as its target T2, Amine oxidase [flavin-containing] A (Homo sapiens, UniProt P21397).
T2 sequence (P21397 whole entry): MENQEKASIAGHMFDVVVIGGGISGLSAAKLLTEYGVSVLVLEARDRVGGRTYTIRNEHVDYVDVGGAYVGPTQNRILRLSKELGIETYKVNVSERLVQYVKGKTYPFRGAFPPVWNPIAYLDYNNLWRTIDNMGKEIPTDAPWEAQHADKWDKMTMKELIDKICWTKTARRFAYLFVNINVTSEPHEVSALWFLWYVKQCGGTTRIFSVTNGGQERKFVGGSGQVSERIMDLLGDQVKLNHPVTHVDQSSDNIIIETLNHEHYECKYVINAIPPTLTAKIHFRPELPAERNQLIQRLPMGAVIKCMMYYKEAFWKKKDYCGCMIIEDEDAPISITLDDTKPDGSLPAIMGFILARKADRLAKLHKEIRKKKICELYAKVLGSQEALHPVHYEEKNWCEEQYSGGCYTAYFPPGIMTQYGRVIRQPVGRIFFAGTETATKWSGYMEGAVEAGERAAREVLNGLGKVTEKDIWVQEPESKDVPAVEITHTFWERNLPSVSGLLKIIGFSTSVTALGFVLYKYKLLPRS
Briefly: Inhibition of recombinant human MAO-A expressed in baculovirus infected BTI insect cells.

In another test the test system is LNCaP. Briefly: Cytotoxicity against human LNCaP cells incubated for 3 days by Cell-Titer Glo assay. It counts as functional. To be noted: 72 h, time 3 day.

Bounds are passed on as bounds.

Regarding `C#CCN(C)CCCOc1cc(NS(C)(=O)=O)c(Cl)cc1Cl`, the results for the CC50 with LNCaP C4-2B and in the test on LNCaP were 119 µM and 103 µM, respectively. Further, the figures for the IC50 in test [1] and in test [2] were 69.6 µM and 0.064 µM, respectively.

For `C#CCN(C)CCCOc1cc(NC(=O)c2cc[nH]n2)c(Cl)cc1Cl`, the CC50 (as a rule, the concentration at which the toxic effect on the cells reaches its halfway point) is 32.5 µM in the test with LNCaP C4-2B and 15.8 µM in the test on LNCaP. The IC50 (in general, the concentration that gives 50% inhibition) in test [1] is over 500 µM; in test [2] it was 25.7 µM.

Regarding `C#CCN(C)CCCOc1cc(O)c(Cl)cc1Cl`, the CC50 in the test on LNCaP C4-2B was determined as 30.2 µM; in the test with LNCaP, 35.5 µM. The results for the IC50 in test [1] and in test [2] were 0.91 µM and 0.0244 µM, respectively.

For `C#CCN(CCO)CCCOc1cc(N)c(Cl)cc1Cl`, the values for the CC50 with LNCaP C4-2B and in the test with LNCaP were 43.9 µM and 55.8 µM, respectively. Besides, the half-maximal inhibitory concentration (IC50) was over 500 µM in test [1] and 0.764 µM in test [2].

`C#CCN(C)C[C@@H](O)COc1cc(N)c(Cl)cc1Cl`: the figures for the CC50 in the test on LNCaP C4-2B and in the test on LNCaP were 73.7 µM and 78.9 µM, respectively. Further, the results for the IC50 in test [1] and in test [2] were over 500 µM and 0.0715 µM, respectively.

Turning to `C#CCN(C)CCCOc1cc(NC(C)=O)c(Cl)cc1Cl`, the CC50 in the test on LNCaP C4-2B came to 97 µM; with LNCaP it was 97.3 µM. Besides, the IC50 in test [1] came to 352 µM; in test [2], 8.66 µM.

`C#CCN(C)CCCOc1cc(C#N)c(Cl)cc1Cl`: the 50% cytotoxic concentration (CC50) was found to be 72.4 µM in the test with LNCaP C4-2B and 65.4 µM with LNCaP. Also, the IC50 came out at 38 µM in test [1] and 0.103 µM in test [2].

For `C#CCN(CCO)CCCOc1ccc(Cl)cc1Cl`, the CC50 in the test on LNCaP C4-2B amounted to 46.5 µM; in the test on LNCaP it was 35.7 µM. Besides, the results for the IC50 in test [1] and in test [2] were over 500 µM and 0.794 µM, respectively.

As for `C#CCN(C)CCCOc1cc(C)c(Cl)cc1Cl`, the CC50 in the test on LNCaP C4-2B came out at 66 µM; in the test with LNCaP, 37 µM. Also, the half-inhibitory concentration (IC50) in test [1] was 122 µM; in test [2], 6.78 µM.

As for `C#CCN(C)CCCOc1cc(NC=O)c(Cl)cc1Cl`, the CC50 was found to be 84 µM in the test on LNCaP C4-2B and 85.9 µM with LNCaP. Also, the IC50 was 25.3 µM in test [1] and 6.6 µM in test [2].

As to `C#CCN(C)C[C@H](O)COc1cc(N)c(Cl)cc1Cl`, the half-maximal cytotoxic concentration (CC50) in the test with LNCaP C4-2B is 73.7 µM; in the test with LNCaP, 78.9 µM. Besides, the values for the IC50 in test [1] and in test [2] were over 500 µM and 0.0715 µM, respectively.

With `C#CCN(C)CCCOc1cc(N)c(Cl)cc1Cl`, the CC50 in the test with LNCaP C4-2B came out at 31.6 µM; in the test on LNCaP, 31.1 µM. Moreover, the results for the IC50 in test [1] and in test [2] were over 500 µM and 0.0148 µM, respectively.

In the case of `C#CCN(C)CCCOc1ccc(Cl)cc1Cl` [CLORGILINE], the CC50 in the test on LNCaP C4-2B is 53.5 µM; in the test with LNCaP it was 51.5 µM.

As for `NNCCc1ccccc1` [PHENELZINE], the CC50 amounted to 157 µM in the test on LNCaP C4-2B and 121 µM in the test on LNCaP.
